# Measured values published in US20170232083A1, “METHODS OF DIAGNOSIS AND TREATMENT OF CELIAC DISEASE IN CHILDREN” (priority 2014, published 2017).
# Key:
# [1] = system: PBMC from newly diagnosed / untreated CD children; details: Liu et al.; cited from earlier work
# [2] = system: PBMC (polyclonal gluten-specific T cells) of paediatric and adult CD patients; experiment: IFN-γ ELISpot of PBMC after 3 day oral wheat challenge (SFU, % of maximal peptide response, dominance scores, EC50; Examples 5-6); type: cell-based, human; details: for Dominance score 3-5yrs (n = 9): CD children 3-5yrs, n = 9, following wheat challenge; for Dominance score 3-5yrs (n = 9) / Dominance score 6-10yrs (n = 10) / Dominance score 11-18yrs (n = 11): mean percentage of maximal peptide response; for Dominance score 6-10yrs (n = 10): CD children 6-10yrs, n = 10, following wheat challenge; for Dominance score 11-18yrs (n = 11): CD children 11-18yrs, n = 11, following wheat challenge; for Dominance score Mean all ages: CD children, following wheat challenge (Table 9); for Dominance scores 3-5 yrs: children with celiac disease 3-5 yrs after wheat challenge (Table 14); for Dominance scores 6-10 yrs: children with celiac disease 6-10 yrs after wheat challenge (Table 14); for Dominance scores 11-18 yrs: children with celiac disease 11-18 yrs after wheat challenge (Table 14); for Dominance scores Mean all ages: mean of all subjects (Table 14)
# [3] = system: PBMC (polyclonal gluten-specific T cells) of paediatric and adult CD patients; details: corresponding adult data shown for comparison (14); cited from earlier work
Substance,individual CD children with responses [1],Dominance score 3-5yrs (n = 9) [2],Dominance score 6-10yrs (n = 10) [2],Dominance score 11-18yrs (n = 11) [2],Dominance score Mean all ages [2],Dominance scores 3-5 yrs [2],Dominance scores 6-10 yrs [2],Dominance scores 11-18 yrs [2],Dominance scores Mean all ages [2],Dominance scores 18+ yrs [3]
PFPQPELPY [DQ2.5-glia-α1a],3/10,–,–,–,–,–,–,–,–,–
PQPELPYPQ [DQ2.5-glia-α2],0/10,–,–,–,–,–,–,–,–,–
W07 (QPFPQPEQPFCQQ) [Peptide W07],–,38.2,20.5,16.2,22.7,40,20,16,24,8
W08 (LQPFPQPELPYSQP) [Peptide W08],–,42.1,51.7,40.2,44.9,45,52,40,45,8
W13 (LQPFPQPELPYLQP) [Peptide W13],–,29.3,32.0,30.1,30.7,34,32,30,32,4
W16 (FPQPEQEFPQPQQ) [Peptide W16],–,19.8,47.3,26.1,32.6,23,47,26,33,0
W26 (PFPLQPEQPFPQP) [Peptide W26],–,39.4,61.6,35.0,45.8,46,62,35,47,0
W32 (PFPEQPEQPFPQP) [Peptide W32],–,26.9,34.4,28.2,30.2,26,34,28,30,0
